In the supplement of paper PMC11451515:

What was measured:
Conditions in all cases: 48 h
NOMO1 [1] = test: AUC of viability dose-response curve (% viability x log10 dose units); higher = less sensitive
Procedure, shortened: (§1)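 Leukemia cells adapted to each medium were seeded in 1536-well plates (500 or 1000 cells/well). They were dosed with library compounds in DMSO at 11 threefold doses, 47 μM to 0.79 nM, for 48 h at 37°C. CellTiter-Glo One luminescence was normalised per plate to DMSO and cell-free wells. Area under the curve was integrated by trapezoidal rule over log10 doses on a four-parameter log-logistic fit; curves exceeding full viability were scaled and curves failing quality control removed.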

P12-Ichikawa [2] = test: as above
Procedure, shortened: as §1

SEM cells [3] = test: as above
Procedure, shortened: as §1

NOMO1 [4] = test: cell viability relative to DMSO control; higher = less cytotoxic
Procedure, shortened: (§2)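 Three leukemia lines were tested: NOMO1 and SEM at 500 cells/well and P12-Ichikawa at 1000 cells/well. Each was adapted for at least four passages in each medium and seeded in 5 μl in 1536-well plates, and library compounds in DMSO were pin-dosed from 47 μM to 0.79 nM in 11 threefold steps. After 48 h at 37°C, CellTiter-Glo One luminescence was read. Viability is a percentage relative to DMSO wells on each plate, with cell-free wells as background.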

P12-Ichikawa [5] = test: as above
Procedure, shortened: as §2

SEM cells [6] = test: as above
Procedure, shortened: as §2

CN(C)CC/C=C1/c2ccccc2COc2ccc(CC(=O)O)cc21
AUC of viability dose-response curve
Conditions | NOMO1 [1] | P12-Ichikawa [2] | SEM cells [3]
HPLM + 10% dialyzed FBS | 466 | 462 | 448
RPMI 5 mM glucose + 10% FBS | 437 | 467 | 454
RPMI 5 mM glucose + 10% dialyzed FBS | 453 | 461 | 449

cell viability [%]
Conditions | NOMO1 [4] | P12-Ichikawa [5] | SEM cells [6]
HPLM + 10% dialyzed FBS, 0.000781 µM | – | 118 | 85.4
HPLM + 10% dialyzed FBS, 0.00234 µM | – | 112 | 81.8
HPLM + 10% dialyzed FBS, 0.00702 µM | – | 116 | 108
HPLM + 10% dialyzed FBS, 0.0211 µM | – | 120 | 120
HPLM + 10% dialyzed FBS, 0.0632 µM | – | 125 | 113
HPLM + 10% dialyzed FBS, 0.19 µM | – | 125 | 130
HPLM + 10% dialyzed FBS, 0.569 µM | – | 122 | 132
HPLM + 10% dialyzed FBS, 1.71 µM | – | 126 | 124
HPLM + 10% dialyzed FBS, 5.12 µM | – | 129 | 101
HPLM + 10% dialyzed FBS, 15.4 µM | – | 125 | 141
HPLM + 10% dialyzed FBS, 46.1 µM | – | 131 | 126
RPMI 5 mM glucose + 10% FBS, 0.000781 µM | 112 | – | 123
RPMI 5 mM glucose + 10% FBS, 0.00234 µM | 115 | – | 106
RPMI 5 mM glucose + 10% FBS, 0.00702 µM | 120 | – | 124
RPMI 5 mM glucose + 10% FBS, 0.0211 µM | 128 | – | 127
RPMI 5 mM glucose + 10% FBS, 0.0632 µM | 153 | – | 136
RPMI 5 mM glucose + 10% FBS, 0.19 µM | 131 | – | 132
RPMI 5 mM glucose + 10% FBS, 0.569 µM | 148 | – | 143
RPMI 5 mM glucose + 10% FBS, 1.71 µM | 166 | – | 144
RPMI 5 mM glucose + 10% FBS, 5.12 µM | 153 | – | 121
RPMI 5 mM glucose + 10% FBS, 15.4 µM | 149 | – | 148
RPMI 5 mM glucose + 10% FBS, 46.1 µM | 147 | – | 142
RPMI 5 mM glucose + 10% dialyzed FBS, 0.000781 µM | – | 122 | –
RPMI 5 mM glucose + 10% dialyzed FBS, 0.00234 µM | – | 114 | –
RPMI 5 mM glucose + 10% dialyzed FBS, 0.00702 µM | – | 122 | –
RPMI 5 mM glucose + 10% dialyzed FBS, 0.0211 µM | – | 141 | –
RPMI 5 mM glucose + 10% dialyzed FBS, 0.0632 µM | – | 140 | –
RPMI 5 mM glucose + 10% dialyzed FBS, 0.19 µM | – | 136 | –
RPMI 5 mM glucose + 10% dialyzed FBS, 0.569 µM | – | 146 | –
RPMI 5 mM glucose + 10% dialyzed FBS, 1.71 µM | – | 135 | –
RPMI 5 mM glucose + 10% dialyzed FBS, 5.12 µM | – | 134 | –
RPMI 5 mM glucose + 10% dialyzed FBS, 15.4 µM | – | 136 | –
RPMI 5 mM glucose + 10% dialyzed FBS, 46.1 µM | – | 138 | –

CC(=O)O[C@@]12CO[C@@H]1C[C@H](O)[C@]3(C)[C@@H]2[C@H](OC(=O)C4=CC=CC=C4)[C@]5(O)C[C@H](OC(=O)C(O)[C@@H](NC(=O)OC(C)(C)C)C6=CC=CC=C6)C(=C(/[C@@H](O)C3=O)C5(C)C)/C (some centres not stated)
AUC of viability dose-response curve
Conditions | NOMO1 [1] | P12-Ichikawa [2] | SEM cells [3]
HPLM + 10% dialyzed FBS | 147 | 126 | 112
RPMI 5 mM glucose + 10% FBS | 112 | 125 | 78.5
RPMI 5 mM glucose + 10% dialyzed FBS | 118 | 174 | 86.9

cell viability [%]
Conditions | NOMO1 [4] | P12-Ichikawa [5] | SEM cells [6]
HPLM + 10% dialyzed FBS, 0.000781 µM | 32.4 | 28 | 23.5
HPLM + 10% dialyzed FBS, 0.00234 µM | 37.3 | 36.3 | 25.1
HPLM + 10% dialyzed FBS, 0.00702 µM | 34.7 | 37.7 | 25.4
HPLM + 10% dialyzed FBS, 0.0211 µM | 39.4 | 38 | 26
HPLM + 10% dialyzed FBS, 0.0632 µM | 42 | 42.2 | 26.5
HPLM + 10% dialyzed FBS, 0.19 µM | 43 | 40.1 | 27.2
HPLM + 10% dialyzed FBS, 0.569 µM | 31.7 | 24.8 | 26.1
HPLM + 10% dialyzed FBS, 1.71 µM | 27.4 | 19.8 | 23.3
HPLM + 10% dialyzed FBS, 5.12 µM | 27.7 | 8.29 | 22.7
HPLM + 10% dialyzed FBS, 15.4 µM | 7.8 | 4.99 | 18.6
HPLM + 10% dialyzed FBS, 46.1 µM | 5.55 | 3.29 | 5.16
RPMI 5 mM glucose + 10% FBS, 0.000781 µM | 23.9 | 33.6 | 13.7
RPMI 5 mM glucose + 10% FBS, 0.00234 µM | 27 | 32.1 | 22
RPMI 5 mM glucose + 10% FBS, 0.00702 µM | 25.5 | 35.6 | 21.2
RPMI 5 mM glucose + 10% FBS, 0.0211 µM | 28.9 | 35.2 | 18.1
RPMI 5 mM glucose + 10% FBS, 0.0632 µM | 28.2 | 37.2 | 20.1
RPMI 5 mM glucose + 10% FBS, 0.19 µM | 27.1 | 34.8 | 20.7
RPMI 5 mM glucose + 10% FBS, 0.569 µM | 24.7 | 25.5 | 18.1
RPMI 5 mM glucose + 10% FBS, 1.71 µM | 24.8 | 25.5 | 16.7
RPMI 5 mM glucose + 10% FBS, 5.12 µM | 20 | 11.8 | 12.1
RPMI 5 mM glucose + 10% FBS, 15.4 µM | 12.6 | 6.81 | 9.57
RPMI 5 mM glucose + 10% FBS, 46.1 µM | 8.59 | 3.21 | 4.28
RPMI 5 mM glucose + 10% dialyzed FBS, 0.000781 µM | 25.2 | 42.5 | 23.4
RPMI 5 mM glucose + 10% dialyzed FBS, 0.00234 µM | 30.6 | 46.4 | 21.1
RPMI 5 mM glucose + 10% dialyzed FBS, 0.00702 µM | 27.8 | 48.1 | 23
RPMI 5 mM glucose + 10% dialyzed FBS, 0.0211 µM | 31.5 | 57.5 | 21.2
RPMI 5 mM glucose + 10% dialyzed FBS, 0.0632 µM | 28.9 | 49.4 | 21.4
RPMI 5 mM glucose + 10% dialyzed FBS, 0.19 µM | 29.7 | 51.4 | 19.5
RPMI 5 mM glucose + 10% dialyzed FBS, 0.569 µM | 27.3 | 40.2 | 18.9
RPMI 5 mM glucose + 10% dialyzed FBS, 1.71 µM | 26.2 | 31.5 | 16.7
RPMI 5 mM glucose + 10% dialyzed FBS, 5.12 µM | 18.8 | 15.5 | 16.5
RPMI 5 mM glucose + 10% dialyzed FBS, 15.4 µM | 11 | 5.67 | 10.5
RPMI 5 mM glucose + 10% dialyzed FBS, 46.1 µM | 9.95 | 2.26 | 2.56
